Test results taken from patent US20230146395A1, “Substituted Pyrimidines and Uses Thereof” (Verge Analytics, Inc., priority 2020, published 2023).
Counter-ions that a name gives are not always drawn.

Legend:
PI3Kδ = molecular target: T1, PI3Kδ (Homo sapiens, UniProt O00329); assay: Inhibition of PI3K isoforms: PI3Kδ (microfluidic electrophoresis kinase assay, PIP2/PS substrate); format: biochemical; settings: p110δ/p85α, ATP 90 μM; read-out: PI3Kd IC50
T1 construct: Full-length N-terminal; GST (N); host or cells: SF9 cells (baculovirus)
Experimental: The kinase substrate was prepared by mixing and sonicating fluorescently-labeled phosphatidylinositol 4,5-phosphate (PIP2) with phospho-L-[…]:20 ratio in 50 mM HEPES buffer pH7.5. The kinase reactions were assembled in 384-well plates (Greiner) in a total volume of […] as follows. The kinase proteins were pre-diluted in an assay buffer comprising 50 mM HEPES, pH 7.5, 0.012% CHAPS, 1 mM DTT, 10 mM Na3VaO4, 10 mM 3-GP, 3 mM MgCl2, and 40 mM NaCl2, and dispensed into a 384-well plate (10 μL per well). Test compounds were serially pre-diluted in DMSO and added to the protein samples by acoustic dispensing (Labcyte Echo). The concentration of DMSO was equalized to 1% in all samples. All test compounds were tested at 12 concentrations. The control samples (0%-inhibition in the absence of inhibitor, DMSO only) and 100%-inhibition (in the absence of enzyme) were assembled in replicates of four and were used to calculate %-inhibition in the presence of test compounds. The reactions were initiated by addition of 10 μL of the PIP2/PS substrate supplemented with ATP. The final concentration of enzymes was 0.5 nM (PI3Kα), 1 nM (PI3Kβ), 10 nM (PI3Kγ), and 0.25 nM (PI3Kδ). The final concentration of ATP was 90 μM (PI3Kα), 60 μM (PI3Kβ), 100 μM (PI3Kγ), and 90 μM (PI3Kδ). The final concentration of PIP2/PS substrate was 1 μM (PIP2). The kinase reactions were allowed to proceed for 3 h at room temperature. Following incubation, the reactions were quenched by addition of 50 μL of termination buffer (100 mM HEPES, pH 7.5, 0.01% Triton X-100, 20 mM EDTA). Terminated plates were analyzed on a microfluidic electrophoresis instrument (Caliper LabChip® 3000, Caliper Life Sciences/Perkin Elmer). The change in the relative fluorescence intensity of the PI(4,5)P substrate and PI(3,4,5)P product peaks was measured. The activity in each test sample was determined as the product to sum ratio (PSR): P/(S+P), where P is the peak height of the product, and S is the peak height of the substrate. Percent inhibition (Pinh) was determined using the following equation: Pinh=(PSR0% inh-PSRcompound)/(PSR0% inh-PSR100% inh)*100 in which PSRcompound is the product/sum ratio in the presence of compound, PSR0% inh is the product/sum ratio in the absence of compound, and the PSR100% inh is the product/sum ratio in the absence of the enzyme. […] (Pinh versus compound concentration) were fitted by a four-parameter sigmoid dose-response model using XLfit software (IDBS).

[1] = tested on: ALS patient (SOD1 A4V) iPSC derived motor neurons; assay: iPSC MN Survival assay (GFP imaging, six days, hazard ratio from Cox regression); format: cell-based; settings: Homo sapiens, survival rescue, read-out: C9 iPSC MN Significant survival rescue EC50
[2] = tested on: HEK 293T transfected with plasmids containing TDP-43 Q331K mutation; assay: HEK/TDP Survival assay (Cell-Titer-Glo, 48 hrs, maximal effect of rescue); format: cell-based; settings: Homo sapiens, HEK 293T with TDP-43 Q331K, (n) in brackets
Procedure, shortened: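 Cells transfected with TDP-43 Q331K, treated 48 h at eight concentrations (6 replicates); ATP read by CellTiter-Glo luminescence versus untreated wells on each plate. Effect per dose as Hedge's g with Empirical Bayes false-sign-rate correction (signed log s >3 = hit); value is maximal rescue from the dose-response curve.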

T1 sequence (O00329 whole entry, canonical isoform): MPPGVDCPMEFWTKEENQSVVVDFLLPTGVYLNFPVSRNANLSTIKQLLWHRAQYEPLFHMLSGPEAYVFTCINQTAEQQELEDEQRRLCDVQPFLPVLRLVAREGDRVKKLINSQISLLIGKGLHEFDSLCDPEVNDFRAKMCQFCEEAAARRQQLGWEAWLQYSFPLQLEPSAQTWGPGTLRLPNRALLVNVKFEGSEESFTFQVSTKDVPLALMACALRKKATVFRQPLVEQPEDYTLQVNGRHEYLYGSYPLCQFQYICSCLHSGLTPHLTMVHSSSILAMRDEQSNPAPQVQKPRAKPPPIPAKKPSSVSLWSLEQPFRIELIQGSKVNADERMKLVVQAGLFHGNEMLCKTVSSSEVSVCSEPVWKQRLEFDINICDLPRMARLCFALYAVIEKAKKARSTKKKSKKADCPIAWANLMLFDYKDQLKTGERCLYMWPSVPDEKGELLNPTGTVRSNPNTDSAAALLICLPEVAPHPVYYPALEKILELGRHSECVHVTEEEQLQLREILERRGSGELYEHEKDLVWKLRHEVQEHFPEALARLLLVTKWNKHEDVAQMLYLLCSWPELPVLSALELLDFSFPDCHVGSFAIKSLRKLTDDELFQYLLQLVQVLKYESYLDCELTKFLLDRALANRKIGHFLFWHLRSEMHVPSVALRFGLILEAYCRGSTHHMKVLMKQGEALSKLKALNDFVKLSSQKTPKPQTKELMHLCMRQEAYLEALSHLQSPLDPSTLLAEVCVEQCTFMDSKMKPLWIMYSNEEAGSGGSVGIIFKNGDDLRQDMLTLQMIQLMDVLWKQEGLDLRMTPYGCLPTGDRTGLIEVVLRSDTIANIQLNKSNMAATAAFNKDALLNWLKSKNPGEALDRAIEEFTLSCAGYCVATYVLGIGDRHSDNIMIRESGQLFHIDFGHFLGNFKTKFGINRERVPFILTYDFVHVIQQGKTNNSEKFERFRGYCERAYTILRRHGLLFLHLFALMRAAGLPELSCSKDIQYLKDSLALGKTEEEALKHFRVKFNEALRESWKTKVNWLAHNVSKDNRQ
T1 sequence (P27986 whole entry partner, canonical isoform): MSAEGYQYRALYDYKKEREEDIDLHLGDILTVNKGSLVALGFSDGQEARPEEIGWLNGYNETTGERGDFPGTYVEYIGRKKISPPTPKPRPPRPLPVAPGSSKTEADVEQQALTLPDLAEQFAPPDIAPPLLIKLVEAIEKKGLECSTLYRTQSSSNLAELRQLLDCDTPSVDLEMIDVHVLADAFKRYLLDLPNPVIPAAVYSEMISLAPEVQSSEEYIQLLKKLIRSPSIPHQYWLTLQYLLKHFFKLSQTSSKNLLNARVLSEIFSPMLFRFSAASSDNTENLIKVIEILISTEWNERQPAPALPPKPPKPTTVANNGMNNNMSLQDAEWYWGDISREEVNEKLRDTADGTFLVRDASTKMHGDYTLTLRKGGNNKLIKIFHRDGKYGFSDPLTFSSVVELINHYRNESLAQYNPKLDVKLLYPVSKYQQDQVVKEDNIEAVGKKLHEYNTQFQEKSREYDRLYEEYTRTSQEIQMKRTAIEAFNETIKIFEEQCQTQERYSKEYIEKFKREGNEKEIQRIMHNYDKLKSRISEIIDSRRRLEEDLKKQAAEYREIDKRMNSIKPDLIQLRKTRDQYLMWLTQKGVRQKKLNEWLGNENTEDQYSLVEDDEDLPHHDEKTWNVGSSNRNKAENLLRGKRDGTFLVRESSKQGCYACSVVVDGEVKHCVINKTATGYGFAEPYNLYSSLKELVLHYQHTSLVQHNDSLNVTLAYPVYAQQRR

IC50 (PI3Kδ): 2710 nM
Structure (SMILES): c1ccc(-c2cc(Nc3nc(N4CCOCC4)c4oc(-c5ccncc5)cc4n3)[nH]n2)cc1 [Compound 1, 4-morpholino-N-(3-phenyl-1H-pyrazol-5-yl)-6-(pyridin-4-yl)furo[3,2-d]pyrimidin-2-amine hydrochloride]
EC50 [1]: 1000 nM
EC50 [2]: 14 nM
